Data reported in ChEMBL document CHEMBL1201862, “PubChem BioAssay data set” (2004).
Activity calls are given as the source filed them.

Assays:
[1] = biological target: Trypsin (Sus scrofa, UniProt P00761); assay: porcine trypsin inhibitors, dose response, selectivity assay for Rce1 protease inhibitor project, biochemical, quenched peptide fluorescence, cherry-pick (AID 488789)
[2] = biological target: T1, CAAX prenyl protease 2 (Saccharomyces cerevisiae S288c, UniProt Q03530); format: biochemical
T1 sequence (Q03530 whole entry): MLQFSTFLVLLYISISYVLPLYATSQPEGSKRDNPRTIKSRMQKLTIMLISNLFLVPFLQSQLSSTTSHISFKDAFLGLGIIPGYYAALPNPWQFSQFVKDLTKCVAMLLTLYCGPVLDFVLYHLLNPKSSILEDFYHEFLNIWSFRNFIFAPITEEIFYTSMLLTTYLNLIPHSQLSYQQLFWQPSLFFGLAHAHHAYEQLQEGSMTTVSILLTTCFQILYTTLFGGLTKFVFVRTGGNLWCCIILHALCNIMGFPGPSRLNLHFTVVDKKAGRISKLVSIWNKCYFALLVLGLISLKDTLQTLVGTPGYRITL

[3] = biological target: T2, CAAX prenyl protease 2 (Homo sapiens, UniProt Q9Y256); assay: human Rce1 protease inhibitors, dose response, biochemical, yeast membranes, quenched-peptide fluorescence, cherry-pick (AID 588849)
T2 sequence (Q9Y256 whole entry): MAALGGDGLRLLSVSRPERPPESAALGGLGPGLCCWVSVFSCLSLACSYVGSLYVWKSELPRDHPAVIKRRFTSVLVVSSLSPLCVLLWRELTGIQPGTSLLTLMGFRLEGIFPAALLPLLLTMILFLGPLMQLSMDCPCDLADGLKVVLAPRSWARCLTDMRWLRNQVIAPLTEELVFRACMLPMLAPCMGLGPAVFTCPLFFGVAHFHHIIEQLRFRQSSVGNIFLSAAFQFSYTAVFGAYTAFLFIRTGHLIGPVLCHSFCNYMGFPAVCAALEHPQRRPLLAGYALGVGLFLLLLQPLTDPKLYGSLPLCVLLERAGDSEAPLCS

[4] = test system: Streptococcus sp. 'group A'; assay: growth inhibition of control SK(-) GAS strain, dose response, counter-screen for streptokinase expression inhibitor project, luminescence, kanamycin, BacTiterGlo, confirmation (AID 1900); format: functional, organism-based
[5] = biological target: T3, Streptokinase A (Streptococcus pyogenes serotype M1, UniProt P10520); assay: S. pyogenes streptokinase expression inhibitors, potency, dose response, plasminogen activation absorbance, OD405 (AID 1914); format: functional, Streptococcus pyogenes M1 GAS;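 further: secreted streptokinase activity via plasminogen activation per viability signal from cell pellet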
T3 sequence (P10520 whole entry): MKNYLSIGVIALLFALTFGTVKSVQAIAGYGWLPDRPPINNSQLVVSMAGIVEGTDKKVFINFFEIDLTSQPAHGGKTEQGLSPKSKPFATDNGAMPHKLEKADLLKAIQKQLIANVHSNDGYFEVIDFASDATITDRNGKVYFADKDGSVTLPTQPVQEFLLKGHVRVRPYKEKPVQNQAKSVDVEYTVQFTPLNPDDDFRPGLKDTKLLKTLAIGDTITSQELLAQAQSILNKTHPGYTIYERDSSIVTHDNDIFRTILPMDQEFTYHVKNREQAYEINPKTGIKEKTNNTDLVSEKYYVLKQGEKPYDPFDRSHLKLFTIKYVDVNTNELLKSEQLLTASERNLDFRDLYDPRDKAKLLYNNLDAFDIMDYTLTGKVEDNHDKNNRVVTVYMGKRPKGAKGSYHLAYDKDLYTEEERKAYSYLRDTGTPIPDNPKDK

[6] = test system: Streptococcus; assay: Group A Streptococcus viability loss, dose response, counter-screen for streptokinase expression inhibitor project, luminescence, BacTiterGlo (AID 1915); format: functional, organism-based;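 further: potency for reduction of bacterial viability or growth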
[7] = biological target: DNA (cytosine-5)-methyltransferase 1 (Homo sapiens, UniProt P26358); assay: DNMT1 methyltransferase inhibitors, confirmation, biochemical, fluorescent molecular beacon (AID 602386); format: functional
[8] = AlphaScreen signal interference compounds, dose response, artefact control for ARNT-TACC3 interaction inhibitor project, biochemical, luminescence, cherry-pick (AID 651705); format: functional;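 further: AlphaScreen bead proximity signal that flags compounds interfering with the detection technology; potency reflects signal decrease which marks the compound as an assay artifact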
[9] = biological target: T4, Caspase-3 (Homo sapiens, UniProt P42574); format: functional;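 further: Dose-response selectivity test against caspase-3 for candidate inhibitors of sentrin-specific proteases (SENPs)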
T4 sequence (P42574 whole entry): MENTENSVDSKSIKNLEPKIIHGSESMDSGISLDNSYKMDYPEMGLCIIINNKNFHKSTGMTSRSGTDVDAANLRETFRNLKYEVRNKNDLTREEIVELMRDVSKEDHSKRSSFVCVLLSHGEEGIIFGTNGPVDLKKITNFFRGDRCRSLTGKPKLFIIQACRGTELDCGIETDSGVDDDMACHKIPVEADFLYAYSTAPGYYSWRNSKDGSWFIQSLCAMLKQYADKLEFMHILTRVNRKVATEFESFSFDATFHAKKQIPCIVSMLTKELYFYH

[10] = biological target: T5, Sentrin-specific protease 7 (Homo sapiens, UniProt Q9BQF6); format: functional;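 further: Luminescence-based dose-response confirmation of ultra-high-throughput screening hits, measuring inhibition of SENP7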
T5 sequence (Q9BQF6 whole entry): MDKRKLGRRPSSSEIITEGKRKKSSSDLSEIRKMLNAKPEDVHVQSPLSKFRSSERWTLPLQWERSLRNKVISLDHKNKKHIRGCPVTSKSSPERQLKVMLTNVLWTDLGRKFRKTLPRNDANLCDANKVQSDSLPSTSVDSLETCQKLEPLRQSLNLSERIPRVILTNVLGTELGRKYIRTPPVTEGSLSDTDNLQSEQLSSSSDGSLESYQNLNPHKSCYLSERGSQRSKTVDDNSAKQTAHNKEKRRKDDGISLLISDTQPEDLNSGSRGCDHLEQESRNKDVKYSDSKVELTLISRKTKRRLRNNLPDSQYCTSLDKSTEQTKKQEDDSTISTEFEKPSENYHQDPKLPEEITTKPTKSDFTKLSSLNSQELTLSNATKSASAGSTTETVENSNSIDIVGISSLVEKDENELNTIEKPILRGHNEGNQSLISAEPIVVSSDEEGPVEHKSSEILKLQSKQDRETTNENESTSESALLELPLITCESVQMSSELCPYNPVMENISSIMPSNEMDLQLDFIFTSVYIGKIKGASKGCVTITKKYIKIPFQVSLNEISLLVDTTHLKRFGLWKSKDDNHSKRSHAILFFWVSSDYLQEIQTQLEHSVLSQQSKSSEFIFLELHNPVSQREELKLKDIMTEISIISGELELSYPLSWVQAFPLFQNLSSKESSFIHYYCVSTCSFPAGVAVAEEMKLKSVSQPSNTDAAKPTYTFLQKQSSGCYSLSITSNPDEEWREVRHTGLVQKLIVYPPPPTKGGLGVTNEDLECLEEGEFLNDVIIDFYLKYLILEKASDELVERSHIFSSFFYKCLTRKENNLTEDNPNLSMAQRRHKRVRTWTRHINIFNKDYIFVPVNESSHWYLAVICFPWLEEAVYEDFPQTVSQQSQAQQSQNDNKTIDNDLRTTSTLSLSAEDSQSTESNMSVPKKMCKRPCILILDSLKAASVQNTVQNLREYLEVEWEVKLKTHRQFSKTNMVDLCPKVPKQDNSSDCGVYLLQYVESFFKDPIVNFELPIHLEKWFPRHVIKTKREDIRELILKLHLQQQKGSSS

[11] = biological target: T6, Sentrin-specific protease 6 (Homo sapiens, UniProt Q9GZR1); format: functional;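 further: Luminescence-based dose-response confirmatory assay of SENP6 inhibition, following up an ultra-high-throughput screen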
T6 sequence (Q9GZR1 whole entry): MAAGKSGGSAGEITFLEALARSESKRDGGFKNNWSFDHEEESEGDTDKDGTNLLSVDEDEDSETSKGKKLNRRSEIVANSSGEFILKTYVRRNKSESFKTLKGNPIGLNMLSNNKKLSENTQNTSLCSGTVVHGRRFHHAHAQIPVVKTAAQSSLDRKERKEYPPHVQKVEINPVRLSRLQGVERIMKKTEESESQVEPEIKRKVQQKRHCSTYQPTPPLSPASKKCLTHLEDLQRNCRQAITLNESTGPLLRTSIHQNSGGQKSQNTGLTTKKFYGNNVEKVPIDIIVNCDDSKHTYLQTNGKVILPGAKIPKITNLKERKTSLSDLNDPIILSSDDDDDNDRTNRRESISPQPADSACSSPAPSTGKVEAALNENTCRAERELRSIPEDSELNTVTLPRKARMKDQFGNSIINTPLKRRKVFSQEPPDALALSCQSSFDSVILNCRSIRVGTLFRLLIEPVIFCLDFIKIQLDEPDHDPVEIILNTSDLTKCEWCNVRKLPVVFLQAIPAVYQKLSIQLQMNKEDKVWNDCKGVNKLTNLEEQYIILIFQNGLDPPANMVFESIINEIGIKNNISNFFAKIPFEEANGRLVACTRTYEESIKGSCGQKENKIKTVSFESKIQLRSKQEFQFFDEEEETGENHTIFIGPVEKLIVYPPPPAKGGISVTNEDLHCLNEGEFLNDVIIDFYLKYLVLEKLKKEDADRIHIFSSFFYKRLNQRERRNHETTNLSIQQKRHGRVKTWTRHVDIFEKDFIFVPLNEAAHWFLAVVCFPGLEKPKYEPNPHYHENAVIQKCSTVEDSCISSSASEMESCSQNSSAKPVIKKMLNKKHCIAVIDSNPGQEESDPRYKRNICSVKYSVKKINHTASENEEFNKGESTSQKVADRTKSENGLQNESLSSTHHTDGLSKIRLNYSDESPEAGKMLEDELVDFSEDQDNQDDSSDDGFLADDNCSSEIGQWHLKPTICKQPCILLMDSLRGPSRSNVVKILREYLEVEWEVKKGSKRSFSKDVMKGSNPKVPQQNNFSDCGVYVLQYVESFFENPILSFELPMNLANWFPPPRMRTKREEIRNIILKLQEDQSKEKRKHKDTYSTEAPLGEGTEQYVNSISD

[12] = biological target: T7, Sentrin-specific protease 8 (Homo sapiens, UniProt Q96LD8); format: functional;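 further: luminescence read-out of SENP8 inhibition, dose-response confirmation following an ultra-high-throughput screen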
T7 sequence (Q96LD8 whole entry): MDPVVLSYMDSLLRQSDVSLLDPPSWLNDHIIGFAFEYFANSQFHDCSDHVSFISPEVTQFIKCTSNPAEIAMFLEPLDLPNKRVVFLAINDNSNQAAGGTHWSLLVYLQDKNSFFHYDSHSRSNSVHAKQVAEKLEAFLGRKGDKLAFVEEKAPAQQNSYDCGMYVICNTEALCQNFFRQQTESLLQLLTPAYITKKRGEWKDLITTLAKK

[13] = biological target: Mitochondrial peptide methionine sulfoxide reductase (Bos taurus, UniProt P54149); assay: Absorbance-based biochemical high throughput dose response assay for activators of Methionine sulfoxide reductase A (MsrA).; format: functional
[14] = biological target: Beta-2 adrenergic receptor (Homo sapiens, UniProt P07550); assay: beta2AR agonists driving receptor internalization, dose response, cell-based, FAP fluorogen, flow cytometry, cherry pick 1 (AID 588763); format: functional
[15] = biological target: Adenosylmethionine-8-amino-7-oxononanoate aminotransferase (Mycobacterium tuberculosis, UniProt P9WQ81); assay: Mycobacterium tuberculosis BioA enzyme inhibitor Measured in Biochemical System Using Plate Reader - 2163-02_Inhibitor_Dose_CherryPick_Activity.; format: functional, Mycobacterium tuberculosis UT205
[16] = biological target: Melanin-concentrating hormone receptor 1 (Homo sapiens, UniProt Q99705); assay: Late-stage fluorescence-based counterscreen for antagonists of the G-protein coupled receptor 7 (GPR7): cell-based dose response assay to identify antagonists of the melanin-concentrating hormone receptor 1 (MCHR1) Set 6.; format: functional
[17] = biological target: T8, Neuropeptides B/W receptor type 1 (Homo sapiens, UniProt P48145); assay: GPR7 antagonist potency, late-stage follow-up, cell-based, fluorescence, dose response, set 6 (AID 588583); format: functional
T8 sequence (P48145 whole entry): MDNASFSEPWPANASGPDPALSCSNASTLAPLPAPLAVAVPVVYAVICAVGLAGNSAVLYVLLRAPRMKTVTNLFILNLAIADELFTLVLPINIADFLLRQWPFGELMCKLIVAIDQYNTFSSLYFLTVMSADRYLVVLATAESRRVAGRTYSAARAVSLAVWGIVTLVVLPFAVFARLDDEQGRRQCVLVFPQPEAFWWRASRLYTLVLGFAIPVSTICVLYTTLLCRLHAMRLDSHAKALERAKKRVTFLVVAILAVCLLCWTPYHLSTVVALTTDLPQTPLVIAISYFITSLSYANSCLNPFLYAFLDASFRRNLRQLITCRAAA

[18] = biological target: DNA dC->dU-editing enzyme APOBEC-3A (Homo sapiens, UniProt P31941); assay: Dose Response confirmation of small molecule APOBEC3A DNA Deaminase Inhibitors via a fluorescence-based single-stranded DNA deaminase assay. [Related pubchem assays (depositor defined):AID493011, AID493024]; format: functional
[19] = biological target: DNA dC->dU-editing enzyme APOBEC-3G (Homo sapiens, UniProt Q9HC16); format: functional;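 further: Dose-response counterscreen measuring inhibition of APOBEC3G DNA deaminase activity, run while confirming APOBEC3A inhibitors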
[20] = NIH-3T3 fibroblast cytotoxicity, dose response, cytotoxicity control for antifungal single agent project, cell-based, Alamar Blue, dry powder (AID 602188); format: functional

Chain of Trypsin (P00761 whole entry): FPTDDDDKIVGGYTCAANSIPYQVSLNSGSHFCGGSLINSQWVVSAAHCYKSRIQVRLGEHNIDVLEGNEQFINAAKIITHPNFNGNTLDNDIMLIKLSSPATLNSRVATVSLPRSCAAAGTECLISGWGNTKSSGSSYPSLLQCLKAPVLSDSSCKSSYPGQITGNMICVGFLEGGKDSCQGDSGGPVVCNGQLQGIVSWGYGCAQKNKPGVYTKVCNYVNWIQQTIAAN
Chain of Beta-2 adrenergic receptor (P07550 whole entry): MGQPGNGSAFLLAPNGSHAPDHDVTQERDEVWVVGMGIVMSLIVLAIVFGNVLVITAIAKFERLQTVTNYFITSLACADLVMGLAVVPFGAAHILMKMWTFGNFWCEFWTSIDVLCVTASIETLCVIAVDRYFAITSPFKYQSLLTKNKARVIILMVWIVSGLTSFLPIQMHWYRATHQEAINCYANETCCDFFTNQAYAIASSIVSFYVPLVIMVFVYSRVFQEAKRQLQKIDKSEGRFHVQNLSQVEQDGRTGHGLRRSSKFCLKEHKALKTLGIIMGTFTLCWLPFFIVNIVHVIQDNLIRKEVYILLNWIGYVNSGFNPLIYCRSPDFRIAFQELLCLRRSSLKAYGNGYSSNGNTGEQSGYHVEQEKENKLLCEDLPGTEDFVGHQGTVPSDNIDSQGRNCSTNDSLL
Chain of Melanin-concentrating hormone receptor 1 (Q99705 whole entry): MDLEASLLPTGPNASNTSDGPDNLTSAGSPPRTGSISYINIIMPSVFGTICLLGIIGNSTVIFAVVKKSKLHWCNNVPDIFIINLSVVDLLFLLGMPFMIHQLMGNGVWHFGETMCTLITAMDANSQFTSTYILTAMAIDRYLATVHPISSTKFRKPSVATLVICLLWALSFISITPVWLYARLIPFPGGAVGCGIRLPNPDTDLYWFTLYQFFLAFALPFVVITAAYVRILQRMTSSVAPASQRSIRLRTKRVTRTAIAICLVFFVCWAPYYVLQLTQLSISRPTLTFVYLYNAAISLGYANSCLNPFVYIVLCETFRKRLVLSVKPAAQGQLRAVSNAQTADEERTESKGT
Chain of DNA (cytosine-5)-methyltransferase 1 (P26358 whole entry): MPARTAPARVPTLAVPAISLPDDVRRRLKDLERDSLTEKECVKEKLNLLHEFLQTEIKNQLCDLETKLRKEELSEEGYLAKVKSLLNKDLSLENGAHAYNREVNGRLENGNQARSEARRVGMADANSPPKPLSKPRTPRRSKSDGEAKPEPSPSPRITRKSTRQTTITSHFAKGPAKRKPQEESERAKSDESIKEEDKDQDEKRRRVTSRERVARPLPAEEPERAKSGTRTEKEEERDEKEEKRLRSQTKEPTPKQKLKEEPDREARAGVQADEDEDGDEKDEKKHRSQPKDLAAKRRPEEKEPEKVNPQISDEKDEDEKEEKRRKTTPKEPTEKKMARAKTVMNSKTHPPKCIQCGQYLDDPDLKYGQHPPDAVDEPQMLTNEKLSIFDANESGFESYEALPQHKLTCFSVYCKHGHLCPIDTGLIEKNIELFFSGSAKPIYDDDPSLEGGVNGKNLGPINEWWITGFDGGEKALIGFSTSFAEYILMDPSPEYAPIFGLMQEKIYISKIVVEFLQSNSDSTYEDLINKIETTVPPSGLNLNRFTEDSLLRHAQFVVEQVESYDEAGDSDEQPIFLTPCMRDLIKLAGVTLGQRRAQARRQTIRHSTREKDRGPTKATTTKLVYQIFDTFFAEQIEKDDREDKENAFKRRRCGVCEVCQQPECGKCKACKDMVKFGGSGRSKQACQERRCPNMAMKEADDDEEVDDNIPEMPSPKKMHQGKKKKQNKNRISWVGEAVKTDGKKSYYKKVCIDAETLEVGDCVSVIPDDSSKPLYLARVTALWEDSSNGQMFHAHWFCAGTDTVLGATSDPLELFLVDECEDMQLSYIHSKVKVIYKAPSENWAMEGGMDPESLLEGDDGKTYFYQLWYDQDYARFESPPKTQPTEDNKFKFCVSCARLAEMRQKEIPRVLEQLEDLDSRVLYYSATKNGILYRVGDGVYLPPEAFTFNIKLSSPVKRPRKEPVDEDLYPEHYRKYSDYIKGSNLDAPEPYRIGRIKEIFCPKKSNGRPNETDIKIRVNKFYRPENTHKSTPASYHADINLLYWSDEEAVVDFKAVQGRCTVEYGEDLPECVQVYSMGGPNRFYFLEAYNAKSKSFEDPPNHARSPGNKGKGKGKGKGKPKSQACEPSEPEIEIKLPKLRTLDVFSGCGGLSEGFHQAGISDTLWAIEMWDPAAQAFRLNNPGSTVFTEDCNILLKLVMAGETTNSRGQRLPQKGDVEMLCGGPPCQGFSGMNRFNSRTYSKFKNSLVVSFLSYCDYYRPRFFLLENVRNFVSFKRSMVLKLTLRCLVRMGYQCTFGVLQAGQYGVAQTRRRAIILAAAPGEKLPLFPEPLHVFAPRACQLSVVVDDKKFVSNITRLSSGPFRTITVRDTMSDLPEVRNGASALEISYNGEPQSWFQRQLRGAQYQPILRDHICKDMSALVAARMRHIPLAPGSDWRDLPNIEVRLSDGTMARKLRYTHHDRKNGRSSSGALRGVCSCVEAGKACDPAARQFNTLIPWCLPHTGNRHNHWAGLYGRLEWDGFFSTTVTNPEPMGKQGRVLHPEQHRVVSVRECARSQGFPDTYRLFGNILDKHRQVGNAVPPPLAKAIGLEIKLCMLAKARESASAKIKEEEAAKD
Chain of DNA dC->dU-editing enzyme APOBEC-3G (Q9HC16 whole entry): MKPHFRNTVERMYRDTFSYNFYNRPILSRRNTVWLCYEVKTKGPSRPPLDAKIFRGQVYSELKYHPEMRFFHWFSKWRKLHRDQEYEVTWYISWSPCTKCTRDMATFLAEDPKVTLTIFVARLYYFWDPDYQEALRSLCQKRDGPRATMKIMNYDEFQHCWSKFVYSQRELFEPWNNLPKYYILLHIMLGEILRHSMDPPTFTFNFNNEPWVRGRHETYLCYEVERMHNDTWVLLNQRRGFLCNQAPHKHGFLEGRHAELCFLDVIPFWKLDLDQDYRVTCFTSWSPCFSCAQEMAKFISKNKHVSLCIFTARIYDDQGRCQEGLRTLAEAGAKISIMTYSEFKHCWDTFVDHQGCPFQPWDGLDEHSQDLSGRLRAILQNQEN
Chain of Adenosylmethionine-8-amino-7-oxononanoate aminotransferase (P9WQ81 whole entry): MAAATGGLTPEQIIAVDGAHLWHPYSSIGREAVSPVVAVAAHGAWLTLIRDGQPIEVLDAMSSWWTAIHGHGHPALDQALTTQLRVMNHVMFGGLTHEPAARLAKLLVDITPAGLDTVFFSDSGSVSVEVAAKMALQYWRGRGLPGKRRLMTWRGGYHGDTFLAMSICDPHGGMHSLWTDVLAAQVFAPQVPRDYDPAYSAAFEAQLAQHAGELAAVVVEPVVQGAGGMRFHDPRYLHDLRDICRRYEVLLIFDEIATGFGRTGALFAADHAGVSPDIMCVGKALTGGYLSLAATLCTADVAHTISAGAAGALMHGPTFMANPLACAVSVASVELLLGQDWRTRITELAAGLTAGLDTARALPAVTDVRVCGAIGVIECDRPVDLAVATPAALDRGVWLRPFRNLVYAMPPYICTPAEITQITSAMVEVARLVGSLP
Chain of Mitochondrial peptide methionine sulfoxide reductase (P54149 whole entry): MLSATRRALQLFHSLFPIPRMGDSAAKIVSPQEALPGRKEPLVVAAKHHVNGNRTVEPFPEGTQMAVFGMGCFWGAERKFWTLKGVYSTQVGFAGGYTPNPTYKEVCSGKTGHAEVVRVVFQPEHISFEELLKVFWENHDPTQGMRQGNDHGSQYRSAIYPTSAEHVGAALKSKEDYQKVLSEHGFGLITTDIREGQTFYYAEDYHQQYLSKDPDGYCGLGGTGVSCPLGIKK
Chain of DNA dC->dU-editing enzyme APOBEC-3A (P31941 whole entry): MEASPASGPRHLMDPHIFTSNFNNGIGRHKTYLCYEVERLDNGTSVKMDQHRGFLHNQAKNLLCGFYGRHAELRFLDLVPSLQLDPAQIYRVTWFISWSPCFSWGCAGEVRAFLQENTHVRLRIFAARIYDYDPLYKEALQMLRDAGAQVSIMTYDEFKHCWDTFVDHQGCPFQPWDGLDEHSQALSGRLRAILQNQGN

With `NC(=O)N1N=C2/C(=C/c3ccccc3)CCCC2C1c1ccccc1` (stereo unspecified) the AC50 [1] was 10.8 µM (active), the AC50 [2] was 9.14 µM (active) and the AC50 [3] was 12.1 µM (active).
For `O=C(O)C(c1ccccc1)N1C(=O)/C(=C\c2ccc(-c3ccc(Br)cc3)o2)SC1=S` (stereo unspecified), the EC50 [4] was 1.81 µM (active), the EC50 [5] was 1.55 µM (active) and the EC50 [6] was 2.51 µM (active). For the same compound, the IC50 [7] was 4.08 µM (active).
With `Oc1c(/C=N/CCCn2ccnc2)c(-c2ccccc2)nn1-c1nc2ccccc2s1` the AC50 [8] was 99.5 µM (active).
For `O=C(COC(=O)c1ccc([N+](=O)[O-])s1)NCc1ccc(F)cc1`, the IC50 [9] was 9.32 µM (active), the IC50 [10] was 6.18 µM (active) and the IC50 [11] was 3.68 µM (active). For the same compound, the IC50 [12] was 3.72 µM (active) and the EC50 [13] was 27.2 µM (inactive).
For `CC(C)OC(=O)c1c(N)n(CCCN2CCOCC2)c2nc3ccccc3nc12`, the AC50 [1] was 6.98 µM (active), the AC50 [2] was 11.9 µM (active) and the AC50 [3] was 4.27 µM (active).
For `COC(=O)c1cc([N+](=O)[O-])c(-n2cncn2)c([N+](=O)[O-])c1`, the EC50 [14] was 19 µM (inactive).
In the case of `CCOc1ccc(C(=O)Nc2cc3c(cc2N2CCCC2)n(CC)c(=O)n3CC)cc1OCC`, the AC50 [15] is reported as 6.03 µM (active).
For `Cc1ccc(C(C#N)c2c(Br)cnn(Cc3cccc4ccccc34)c2=O)cc1` (stereo unspecified), the IC50 [16] was 0.219 µM (active) and the IC50 [17] was 0.219 µM (active).
In the case of `CCn1c(SCC(=O)N2CCCC2)nnc1-c1ccc(N)cc1`, the IC50 [18] is reported as 2.31 µM (active), the IC50 [19] is reported as 2.75 µM (active) and the EC50 [14] is reported as 2.07 µM (active).
For `Cc1ccc(C(=O)Nc2nc(-c3ccccn3)cs2)cc1`, the AC50 [20] was 9.7 µM (active).
In the case of `COc1ccc(C(C#N)c2c(Br)cnn(Cc3cccc4ccccc34)c2=O)cc1` (stereo unspecified), the IC50 [16] is reported as 0.131 µM (active) and the IC50 [17] is reported as 0.131 µM (active).
